What is called IC50 is the concentration that gives 50% inhibition.

For the assay, the target named is T1, IRE1α (Homo sapiens, UniProt O75460, D688N).
T1 construct: containing the kinase and RNase domains (KR, AA G547-1L977, D688N); made in house; host or cells: Sf9 insect cells
As to the kind of experiment: IRE1α TR-FRET competition binding assay (IRE1α HTRF). The conditions noted are these: His-tagged IRE1α kinase dead construct (KR, D688N) 0.25 nM; Alexa fluor 647-labeled ATP competitive probe 2 nM; one hour at room temperature; read-out: IRE1α (alpha) HTRF (IC50). The protocol:
Example 59. IRE1α TR-FRET Competition Binding Assay
To determine the affinity of compound binding to the kinase domain of IRE1α, a time-resolved fluorescence resonance energy transfer (TR-FRET) competition assay was used.
A His-tagged IRE1α kinase dead construct containing the kinase and RNase domains (KR, AA G547-1L977, D688N) was expressed in Sf9 insect cells. The purified protein (final concentration 0.25 nM) was pre-incubated with anti-His Europium labeled antibody (Life Technologies PV5596, final concentration 2 nM) for one hour at 4° C. in TR-FRET Assay Buffer (50 mM HEPES, pH 7.5, 10 mM MgCl2, 0.083 mM Brij 35, 1 mM DTT, and 0.1% bovine gamma globulin) prior to addition to test compounds. An Alexa fluor 647-labeled probe based on an ATP competitive inhibitor was added to a final concentration of 2 nM. Reactions were carried out for one hour at room temperature in a final volume of 20 μL in 384 well white ProxiPlates (Perkin Elmer 6008289). Binding of the probe to the IRE1α protein was detected in an Envision instrument (PerkinElmer) equipped with a TRF laser option and a LANCE/Delfia Dual/Bias D400/D630 mirror (Ex 347 nm, 1st Em 665 nm, 2nd Em 615 nm).
In general terms: TR-FRET usually uses a lanthanide donor and a delayed reading to cut background.

Molecules are shown by their SMILES. Structures can show the parent of a compound that is named as a salt.

T1 sequence (O75460 547-977 D688N): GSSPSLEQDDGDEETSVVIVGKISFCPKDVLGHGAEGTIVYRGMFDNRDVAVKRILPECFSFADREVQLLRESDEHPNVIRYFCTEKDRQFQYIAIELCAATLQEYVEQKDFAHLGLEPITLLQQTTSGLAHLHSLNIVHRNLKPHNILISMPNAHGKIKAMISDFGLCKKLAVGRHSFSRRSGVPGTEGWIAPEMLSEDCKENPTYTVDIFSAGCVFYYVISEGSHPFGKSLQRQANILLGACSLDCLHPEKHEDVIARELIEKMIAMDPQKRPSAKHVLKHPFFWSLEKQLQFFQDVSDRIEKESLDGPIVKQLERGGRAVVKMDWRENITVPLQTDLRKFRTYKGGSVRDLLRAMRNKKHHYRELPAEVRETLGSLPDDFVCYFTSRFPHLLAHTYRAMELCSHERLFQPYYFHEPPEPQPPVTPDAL

With `Cc1nc(NS(=O)(=O)c2ccccc2Cl)ccc1-c1cc(C(F)F)c2nc(N[C@H]3CC[C@H](N(C)C)CC3)ncc2n1` [Compound 145, 2-Chloro-N-[5-[8-(difluoromethyl)-2-[[(1,4-trans)-4-(dimethylamino)cyclohexyl]amino]pyrido[3,2-d]pyrimidin-6-yl]-6-methyl-2-pyridyl]benzenesulfonamide], the IC50 was found to be 0.25 nM. On to `Cc1cc(-c2ccc(NS(=O)(=O)CCC(F)(F)F)c(Cl)c2)nc2cnc(N[C@H]3CC[C@H](N(C)C)CC3)nc12` [Compound 120, N-(2-Chloro-4-(2-(((1,4-trans)-4-(dimethylamino)cyclohexyl)amino)-8-methylpyrido[3,2-d]pyrimidin-6-yl)phenyl)-3,3,3-trifluoropropane-1-sulfonamide], for which the IC50 was determined as 0.25 nM. For `O=S(=O)(Cc1ccccc1)Nc1c(F)cc(-c2cc3cnc(N[C@@H]4CNC[C@@H](F)C4)nc3nc2OC2CCOC2)c(F)c1F` (single isomer, unassigned) [Compound 105], the IC50 is 0.39 nM. As to `O=S(=O)(Cc1ccc(F)cc1)Nc1ccc(-c2cc(C(F)F)c3nc(N[C@@H]4CNC[C@@H](F)C4)ncc3n2)cc1F` [Compound 139, N-[4-[8-(Difluoromethyl)-2-[[(3S,5S)-5-fluoro-3-piperidyl]amino]pyrido[3,2-d]pyrimidin-6-yl]-2-fluoro-phenyl]-1-(4-fluorophenyl)methanesulfonamide hydrochloride], the IC50 turned out to be 0.23 nM.

Turning to `Cc1cc(-c2ccc3c(c2)CCS(=O)(=O)N3)nc2cnc(N[C@H]3CC[C@H](N(C)C)CC3)nc12` [Compound 151, 6-(2-(((1,4-trans)-4-(Dimethylamino)cyclohexyl)amino)-8-methylpyrido[3,2-d]pyrimidin-6-yl)-3,4-dihydro-1H-benzo[c][1,2]thiazine 2,2-dioxide], the IC50 turned out to be 39 nM.

With `Cc1cc(-c2ccc(NS(=O)(=O)Cc3ccc(F)cc3)c(F)c2)nc2cnc(N[C@@H]3CNC[C@@H](F)C3)nc12` [Compound 121, N-(2-Fluoro-4-(2-(((3S,5S)-5-fluoropiperidin-3-yl)amino)-8-methylpyrido[3,2-d]pyrimidin-6-yl)phenyl)-1-(4-fluorophenyl)methanesulfonamide formate], the IC50 amounted to 0.27 nM.

As for `Cc1cc(-c2ccc(NS(=O)(=O)Cc3ccc(F)cc3)c(F)c2)nc2cnc(N[C@H]3CC[C@H](N(C)C)CC3)nc12` [Compound 129, N-(4-(2-(((1,4-trans)-4-(Dimethylamino)cyclohexyl)amino)-8-methylpyrido[3,2-d]pyrimidin-6-yl)-2-fluorophenyl)-1-(4-fluorophenyl)methanesulfonamide], the concentration for half-maximal inhibition (IC50) amounted to 0.08 nM.

As for `Cc1cc(-c2ccc(NS(=O)(=O)c3cnccc3C(F)(F)F)c(F)c2)nc2cnc(N[C@H]3CC[C@H](N(C)C)CC3)nc12` [Compound 156, N-[4-[2-[[(1,4-trans)-4-(Dimethylamino)cyclohexyl]amino]-8-methyl-pyrido[3,2-d]pyrimidin-6-yl]-2-fluoro-phenyl]-4-(trifluoromethyl)pyridine-3-sulfonamide], the IC50 is 0.18 nM. As for `Cc1cc(-c2ccc(NS(=O)(=O)Cc3ccc(C#N)cc3)c(F)c2)nc2cnc(N[C@@H]3CNC[C@@H](F)C3)nc12` [Compound 116, 1-(4-Cyanophenyl)-N-(2-fluoro-4-(2-(((3S,5S)-5-fluoropiperidin-3-yl)amino)-8-methylpyrido[3,2-d]pyrimidin-6-yl)phenyl)methanesulfonamide formate], the half-maximal inhibitory concentration (IC50) is 0.13 nM. As for `CCc1cc(-c2ccc(NS(=O)(=O)c3ccccc3F)nc2C)nc2cnc(N[C@H]3CC[C@H](N(C)C)CC3)nc12` [Compound 146, N-(5-(2-(((1,4-trans)-4-(dimethylamino)cyclohexyl)amino)-8-ethylpyrido[3,2-d]pyrimidin-6-yl)-6-methylpyridin-2-yl)-2-fluorobenzenesulfonamide], the figure is 0.21 nM. Regarding `COc1cc(-c2ccc(NS(=O)(=O)CCC(F)(F)F)c(F)c2)nc2cnc(N[C@H]3CC[C@H](N(C)C)CC3)nc12` [Compound 118, N-(4-(2-(((1,4-trans)-4-(Dimethylamino)cyclohexyl)amino)-8-methoxypyrido[3,2-d]pyrimidin-6-yl)-2-fluorophenyl)-3,3,3-trifluoropropane-1-sulfonamide formate], the IC50 worked out at 22 nM. Take `CCCS(=O)(=O)Nc1ccc(-c2cc(C)c3nc(N[C@@H]4CNC[C@@H](F)C4)ncc3n2)cc1F` [Compound 111, N-(2-Fluoro-4-(2-(((3S,5S)-5-fluoropiperidin-3-yl)amino)-8-methylpyrido[3,2-d]pyrimidin-6-yl)phenyl)propane-1-sulfonamide]: the IC50 turned out to be 2.1 nM. For `O=S(=O)(Cc1ccccc1)Nc1ccc(-c2cc3cnc(N[C@@H]4CNC[C@@H](F)C4)nc3cn2)cc1F` [Compound 101, N-(2-Fluoro-4-(2-(((3S,5S)-5-fluoropiperidin-3-yl)amino)pyrido[3,4-d]pyrimidin-6-yl)phenyl)-1-phenylmethanesulfonamide], the IC50 was 3 nM. `O=S(=O)(Cc1ccccc1)Nc1ccc(-c2ccc3nc(N[C@@H]4CNC[C@@H](F)C4)ncc3n2)cc1F` [Compound 100, N-(2-Fluoro-4-(2-(((3S,5S)-5-fluoropiperidin-3-yl)amino)pyrido[3,2-d]pyrimidin-6-yl)phenyl)-1-phenylmethanesulfonamide]: the IC50 was found to be 0.89 nM. With `Cc1cc(-c2ccc(NS(=O)(=O)c3ccccn3)c(F)c2)nc2cnc(N[C@H]3CC[C@H](N(C)C)CC3)nc12` [Compound 158, N-(4-(2-(((1,4-trans)-4-(Dimethylamino)cyclohexyl)amino)-8-methylpyrido[3,2-d]pyrimidin-6-yl)-2-fluorophenyl)pyridine-2-sulfonamide], the concentration for half-maximal inhibition (IC50) turned out to be 0.2 nM. Regarding `Cc1cc(-c2ccc(NS(=O)(=O)CCC(F)(F)F)nc2)nc2cnc(N[C@H]3CC[C@H](N(C)C)CC3)nc12` [Compound 125, N-(5-(2-(((1,4-trans)-4-(Dimethylamino)cyclohexyl)amino)-8-methylpyrido[3,2-d]pyrimidin-6-yl)pyridin-2-yl)-3,3,3-trifluoropropane-1-sulfonamide], the 50% inhibitory concentration (IC50) stood at 0.44 nM. In the case of `Cc1cc(-c2ccc(NS(=O)(=O)Cc3ccc(F)cc3)c(F)c2F)nc2cnc(N[C@H]3CC[C@H](N(C)C)CC3)nc12` [Compound 132, N-(4-(2-(((1,4-trans)-4-(Dimethylamino)cyclohexyl)amino)-8-methylpyrido[3,2-d]pyrimidin-6-yl)-2,3-difluorophenyl)-1-(4-fluorophenyl)methanesulfonamide], the 50% inhibitory concentration (IC50) is 0.23 nM.

Turning to `CN(C)[C@H]1CC[C@H](Nc2ncc3nc(-c4ccc(NS(=O)(=O)Cc5ccc(F)cc5)c(F)c4)cc(C(F)F)c3n2)CC1` [Compound 131, N-1,4-trans-[4-[8-(Difluoromethyl)-2-[[4-(dimethylamino)cyclohexyl]amino]pyrido[3,2-d]pyrimidin-6-yl]-2-fluoro-phenyl]-1-(4-fluorophenyl)methanesulfonamide], the IC50 came to 0.15 nM. `CCc1cc(-c2ccc(NS(=O)(=O)c3ccccc3Cl)nc2OC)nc2cnc(N[C@H]3CC[C@H](N(C)C)CC3)nc12` [Compound 141, 2-Chloro-N-(5-(2-(((1,4-trans)-4-(dimethylamino)cyclohexyl)amino)-8-ethylpyrido[3,2-d]pyrimidin-6-yl)-6-methoxypyridin-2-yl)benzenesulfonamide]: the half-maximal inhibitory concentration (IC50) stood at 0.43 nM. With `CCc1cc(-c2ccc(NS(=O)(=O)c3ccccc3OC(F)F)nc2C)nc2cnc(N[C@H]3CC[C@H](N(C)C)CC3)nc12` [Compound 148, 2-(Difluoromethoxy)-N-(5-(2-(((1,4-trans)-4-(dimethylamino)cyclohexyl)amino)-8-ethylpyrido[3,2-d]pyrimidin-6-yl)-6-methylpyridin-2-yl)benzenesulfonamide], the concentration for half-maximal inhibition (IC50) amounted to 0.51 nM.

For the molecule `CCc1cc(-c2ccc(NS(=O)(=O)c3ccccc3Cl)c(F)c2)nc2cnc(N[C@@H]3CNC[C@@H](F)C3)nc12` [Compound 123, 2-Chloro-N-(4-(8-ethyl-2-(((3S,5S)-5-fluoropiperidin-3-yl)amino)pyrido[3,2-d]pyrimidin-6-yl)-2-fluorophenyl)benzenesulfonamide formate], the half-inhibitory concentration (IC50) turned out to be 0.18 nM. For `CCc1cc(-c2ccc(NS(=O)(=O)CCC(F)(F)F)c(F)c2)nc2cnc(N[C@@H]3CNC[C@@H](F)C3)nc12` [Compound 119, N-(4-(8-Ethyl-2-(((3S,5S)-5-fluoropiperidin-3-yl)amino)pyrido[3,2-d]pyrimidin-6-yl)-2-fluorophenyl)-3,3,3-trifluoropropane-1-sulfonamide formate], the half-inhibitory concentration (IC50) was determined as 0.39 nM. For the molecule `CN(C)[C@H]1CC[C@H](Nc2ncc3nc(-c4ccc(NS(=O)(=O)c5ccccc5Cl)c(F)c4)cc(C(F)F)c3n2)CC1` [Compound 143, 2-Chloro-N-[(1,4-trans)-4-[8-(difluoromethyl)-2-[[4-(dimethylamino)cyclohexyl]amino]pyrido[3,2-d]pyrimidin-6-yl]-2-fluoro-phenyl]benzenesulfonamide], the 50% inhibitory concentration (IC50) is 0.2 nM.
